Broadly, the IC50 is the concentration that inhibits the measured activity by half.

SMILES strings stand for the structures. Bounds are passed on as bounds.

This note sets out measurements from patent US9856259B2, “Heterocyclic compounds and uses thereof” (Plexxikon Inc., priority 2014, dated 2018).

For one assay, the target named is T1, BRD4-BD12 (Homo sapiens, UniProt O60885).
T1 construct: dual bromodomains (BRD4-BD12 (1-477), BRD4-BD12 (1-472)); six-His tag (N); made in house; host or cells: E. coli BL21-CodonPlus (DE3)
As to the kind of experiment: Alphascreen binding assay, BRD4(1 2) H4. The note with it: BRD4 dual bromodomains with acetylated Histone 4 peptide, read-out: Biochemical activity (IC50 μM) BRD4(1 2) H4. As for the experimental part: Binding of compounds of formula (I) with bromodomain 2, 3 4 was assessed using Alphascreen binding assay. The inhibition of the interaction between bromodomain and its acetylated target protein (Filippakopoulos P et al. 2012) was measured quantitatively using recombinant BRD proteins, an acetylated Histone 4 peptide and AlphaScreen™ technology. In absence of inhibition the BRD protein bound to AlphaScreen™ nickel chelate acceptor beads can interact with the acetylated Histone 4 peptide which is immobilized by the AlphaScreen™ Streptavidin coated beads. This interaction brings donor and acceptor beads in proximity. The close proximity allows the singlet oxygen produced by laser excitation of the donor beads to reach the acceptor beads and generate a luminescence signal. BRD inhibitors result in a decrease in the proximity signal through an inhibition of the BRD acetylated peptide interaction.
Recombinant human bromodomains containing the N-terminal bromodomain (BRD2-BD1 (71-194), BRD3-BD1 (24-144) and BRD4-BD1 (44-164)) or dual bromodomains (BRD4-BD12 (1-477), BRD4-BD12 (1-472)) were prepared and purified as described in protein expression and purification session. The peptide is human Histone H41-21K5AcK8AcK12AcK16Ac-Biotin (Anaspec Calif., USA).
Protocol for BRD2, BRD3 and BRD4 assay: All components are prepared in buffer composed of 50 mM HEPES pH 7.5, 100 mM NaCl, 0.01% BSA, 0.01% Triton X-100, 2 mM DTT. 7 μL of Bromodomain protein and 7 μL of peptide are added to wells containing 1 μL of various concentrations of test compounds of formula (I) or DMSO vehicle in an Alphaplate (PerkinElmer Ga., USA) and incubated for 1 hour at room temperature. 4 μL donor and acceptor bead mixture is then added with final concentrations of 7.5 μg/ml. 30 minutes after bead addition, Alpha signal is read on the Envision spectrometer (λEx 680 nm, λEm 520-620 nm). Final concentrations of bromodomain proteins and peptide are as shown below.
All data was normalized to the mean of 16 high and 16 low control wells on each plate. A four parameter curve fit of the following formula was then applied: Y=a+(b−a)/(1+(x/c)^d) Where ‘a’ is the minimum, ‘b’ is the maximum, ‘c’ is the pIC50 and ‘d’ is the Hill slope. Protein Expression and Purification
Recombinant human bromodomains containing the N-terminal bromodomain (BRD2-BD1 (71-194), BRD3-BD1 (24-144) and BRD4-BD1 (44-164)) or dual bromodomains (BRD4-BD12 (1-477), BRD4-BD12 (1-472)) were expressed in E. coli cells (in a modified pET vector) with an N-terminal six-His tag and purified using a combination of both IMAC (Ni-affinity) and size exclusion chromatography steps.
Recombinant BRD proteins were expressed using the E. coli strain BL21-CodonPlus (DE3) (Agilent Technologies CA, USA). Cells were grown in Terrific Broth (TB) media to an OD600 of 1.2 at 37° C. at which temperature was reduced to 25° C., protein was induced with 1.0 mM IPTG for 12-18 hours and harvested by centrifugation at 8000×g for 20 minutes. Cells were re-suspended in 0.1M KPO4 pH 8.0, 250 mM NaCl, 10% Glycerol, 0.75% NP-40, 25 mM Imidazole, 5 mM BME with 0.2 mg/ml Lysosyme, 2.0 mM PMSF, 25 μg/ml DNAse I, incubated on ice for 30 minutes and lyzed with a cell disruptor (MicroFluidics MA, USA). The lysate was clarified by centrifugation at 20,000×g for 2 hours. The protein was captured with Ni-NTA resin (Life Technologies, USA). Contaminating proteins were washed off with 25 mM Tris-HCl pH 8.3, 250 mM NaCl, 12% Glycerol and 50 mM Imidazole. Following 3× wash steps, protein was eluted step wise using a 50 mM HEPES pH 7.5, 500 mM NaCl and 400 mM Imidazole. The protein was further purified using Gel Filtration column 26/600 Superdex 200 (GE Biosciences N.J., USA) in 50 mM HEPES pH 7.5, 250 mM NaCl. The protein was aliquoted and flash-frozen in liquid Nitrogen.

A further assay concerns MV-4-11. Nature of the assay: Oncology cell growth assay, MV-4-11 3 d growth. It is filed as cell-based. The note with it: Homo sapiens, MV4-11; MV-4-11 cells, 72 hours, CellTiter Glo; read-out: Cell activity (IC50 μM) MV-4-11 3 d-Growtb. On the procedure:
In this study, we test compounds in different cancer cell lines. MV-4-11 and MOLM-13 are AML cell lines harboring a MLL-AF4 and MLL-AF9 translocation, respectively. MM.1S is a multiple myeloma cell line. SK—N-AS, IMR-32 and SK-N-BE(2) are neuroblastoma cell lines. IMR-32 and SK-N-BE(2) cell lines harbor MYCN amplifications.
MV-4-11, MM.1S, IMR-32, SK-N-AS and SK-N-BE(2) were obtained from ATCC (IL, USA) and MOLM-13 were purchased from DSMZ (Braunschweig, German). Cells are cultured as recommended by their sources. For growth inhibition studies 3000 cells are seeded in wells of a 96-well plate in 75 μL of culture media. After several hours, growth media containing compounds of formula (I) are added to the wells. Compound at a maximal concentration of 5 mM was serially diluted 1:3 for a total of 8 point titration with DMSO as a control. A 1 μL aliquot of each dilution point is added to 249 μL growth media and 75 μL is added to each well containing cells, providing 10 μM compound at the maximum concentration point. The final concentration of DMSO in all wells is 0.2%. Cells are incubated for 72 hours, and 25 μL of CellTiter Glo Reagent (Promega Ga., USA) is added to each well. Plates are shaken for approximately 10 minutes and chemiluminescent signal is read on Tecan microplate reader. The measured luminescence correlates directly with cell number.
All data is normalized to the mean of eight DMSO high control wells on each plate. A four parameter curve fit of the following formula was then applied: Y=a+(b−a)/(1+(x/c)^d) Where ‘a’ is the minimum, ‘b’ is the maximum, ‘c’ is the pIC50 and ‘d’ is the Hill slope. […] Myc Reporter Assay
(Cellular ATP, detected with luciferase, serves as a proxy for viable cell number.)

Assay [1] relates to cancer cell lines / MV-4-11 Myc reporter cell line. Nature of the assay: Bromodomain cell assays of Example 8 (at least one of them). Type of assay: cell-based. Particulars: Homo sapiens, MV4-11; at least one of the bromodomain cell assays described in Example 8. Summed up:
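Antiproliferation: 3000 cells/well, 8-point 1:3 titration from 10 µM final, 0.2% DMSO, 72 h, CellTiter Glo luminescence. Myc reporter: MV-4-11 with E-box firefly luciferase, 25,000 cells, same titration, 24 h; One-Glo luminescence with CellTiter-Fluo viability; 10 µM JQ1 as low control. pIC50 from four-parameter fit.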

Consider `Cc1noc(C)c1-c1cnc2c(-c3cnn(C(F)F)c3)nn(CC3CCC(F)(F)CC3)c2c1` [Compound P-2082, 4-[1-[(4,4-difluorocyclohexyl)methyl]-3-[1-(difluoromethyl)pyrazol-4-yl]pyrazolo[4,3-b]pyridin-6-yl]-3,5-dimethyl-isoxazole], for which the IC50 at BRD4-BD12 is at most 1 µM; with MV-4-11, at most 1 µM; in assay [1] it was under 10000 nM.

`Cc1noc(C)c1-c1cnc2c(c1)ncn2C(c1ccccc1)c1ccccn1` (stereo not drawn) [Compound P-2104, 3,5-dimethyl-4-[3-[phenyl(2-pyridyl)methyl]imidazo[4,5-b]pyridin-6-yl]isoxazole]: the IC50 at BRD4-BD12 was 1 to 10 µM; in the assay with MV-4-11, 10 to 200 µM; in assay [1] it was under 10000 nM.

On to `Cc1noc(C)c1-c1cnc2ncn(C(c3ccccc3)c3ccccn3)c2c1` (stereo not drawn) [Compound P-2103, 3,5-dimethyl-4-[1-[phenyl(2-pyridyl)methyl]imidazo[4,5-b]pyridin-6-yl]isoxazole], for which the IC50 is at most 1 µM at BRD4-BD12, at most 1 µM in the assay with MV-4-11 and under 10000 nM in assay [1].

With `Cc1noc(C)c1-c1ccc2c(-c3cnn(CC(F)(F)F)c3)nn(C(c3ccccc3)c3ccccn3)c2c1` (stereo not drawn) [Compound P-2005, 3,5-dimethyl-4-[1-[phenyl(2-pyridyl)methyl]-3-[1-(2,2,2-trifluoroethyl)pyrazol-4-yl]indazol-6-yl]isoxazole], the IC50 at BRD4-BD12 is at most 1 µM; with MV-4-11 it was at most 1 µM; in assay [1], under 10000 nM.

In the case of `Cc1noc(C)c1-c1cnc2c(-c3ccc(CC(=O)O)cc3)cn(C(c3ccccc3)c3ccccn3)c2n1` (stereo not drawn) [Compound P-2048, 2-[4-[3-(3,5-dimethylisoxazol-4-yl)-5-[phenyl(2-pyridyl)methyl]pyrrolo[2,3-b]pyrazin-7-yl]phenyl]acetic acid], the figures for the IC50 (at BRD4-BD12; in the assay with MV-4-11; in assay [1]) were at most 1 µM, at most 1 µM and under 10000 nM, respectively.

In the case of `[2H]C([2H])(C1CCC(F)(F)CC1)n1ccc2ncc(-c3[nH]nnc3C)nc21` [Compound P-2041, 5-[dideuterio-(4,4-difluorocyclohexyl)methyl]-3-(4-methyl-1H-triazol-5-yl)pyrrolo[2,3-b]pyrazine], the IC50 is 1 to 10 µM at BRD4-BD12, 1 to 10 µM in the assay on MV-4-11 and under 10000 nM in assay [1].

For `COC(=O)c1ccc(-c2cn(C(c3ccccc3)c3ccccn3)c3nc(-c4c(C)noc4C)cnc23)cc1` (stereo not drawn) [Compound P-2045, methyl 4-[3-(3,5-dimethylisoxazol-4-yl)-5-[phenyl(2-pyridyl)methyl]pyrrolo[2,3-b]pyrazin-7-yl]benzoate], the IC50 at BRD4-BD12 is at most 1 µM; in the assay on MV-4-11, at most 1 µM; in assay [1], under 10000 nM.

As for `Cc1noc(C)c1-c1cnc2[nH]cc(CC3CCC(F)(F)CC3)c2n1` [Compound P-2077, 4-[7-[(4,4-difluorocyclohexyl)methyl]-5H-pyrrolo[2,3-b]pyrazin-2-yl]-3,5-dimethyl-isoxazole], the IC50 at BRD4-BD12 is 1 to 10 µM; in the assay with MV-4-11, 1 to 10 µM; in assay [1], under 10000 nM.

Consider `Cc1noc(C)c1-c1ccc2c(-c3cnn(C)c3)nn(C(c3ccccc3)c3ccccn3)c2c1` (stereo not drawn) [Compound P-2004, 3,5-dimethyl-4-[3-(1-methylpyrazol-4-yl)-1-[phenyl(2-pyridyl)methyl]indazol-6-yl]isoxazole], for which the half-maximal inhibitory concentration (IC50) is at most 1 µM at BRD4-BD12, at most 1 µM in the assay on MV-4-11 and under 10000 nM in assay [1].

On to `[2H]C([2H])(C1CCC(F)(F)CC1)n1ccc2ncc(-c3c(C)noc3C)nc21` [Compound P-2038, 4-[5-[dideuterio-(4,4-difluorocyclohexyl)methyl]pyrrolo[2,3-b]pyrazin-3-yl]-3,5-dimethyl-isoxazole], for which the values for the IC50 (on BRD4-BD12; with MV-4-11; in assay [1]) were at most 1 µM, 1 to 10 µM and under 10000 nM, respectively.

`Cc1noc(C)c1-c1cnc2c(n1)c(CC1CCC(F)(F)CC1)cn2-c1ccc(C(=O)O)cn1` [Compound P-2078, 6-[7-[(4,4-difluorocyclohexyl)methyl]-2-(3,5-dimethylisoxazol-4-yl)pyrrolo[2,3-b]pyrazin-5-yl]pyridine-3-carboxylic acid]: the results for the IC50 (on BRD4-BD12; in the assay with MV-4-11; in assay [1]) were at most 1 µM, 1 to 10 µM and under 10000 nM, respectively.

As for `Cc1noc(C)c1-c1ccc2c(-c3ccc(CC(=O)O)cc3)nn(C(c3ccccc3)c3ccccn3)c2c1` (stereo not drawn) [Compound P-2009, 2-[4-[6-(3,5-dimethylisoxazol-4-yl)-1-[phenyl(2-pyridyl)methyl]indazol-3-yl]phenyl]acetic acid], the half-inhibitory concentration (IC50) was at most 1 µM at BRD4-BD12, at most 1 µM with MV-4-11 and under 10000 nM in assay [1].

On to `Cc1noc(C)c1-c1ccc2c(I)nn([C@@H](C)c3ccccn3)c2c1` [Compound P-2010, 4-[3-iodo-1-[(1S)-1-(2-pyridyl)ethyl]indazol-6-yl]-3,5-dimethyl-isoxazole], for which the IC50 on BRD4-BD12 was at most 1 µM; in the assay on MV-4-11, at most 1 µM; in assay [1], under 10000 nM.

Turning to `Cc1noc(C)c1-c1cnc2c(-c3ccc(C(=O)O)cc3)cn([C@@H](C)c3ccccn3)c2n1` [Compound P-2050, 4-[3-(3,5-dimethylisoxazol-4-yl)-5-[(1S)-1-(2-pyridyl)ethyl]pyrrolo[2,3-b]pyrazin-7-yl]benzoic acid], the IC50 was at most 1 µM on BRD4-BD12, at most 1 µM in the assay with MV-4-11 and under 10000 nM in assay [1].
